From PMC13672995, “NCR13 peptide protects soybean against Cercospora sojina using multi-faceted modes of action and additive interaction with chemical fungicides” (Journal of Experimental Botany, 2025)
Where no end group is shown, it is not given here.

Legend:
[1] = system: C. sojina QoI fungicide-resistant isolate Cs350; format: cell-based, Cercospora sojina
Procedure: (§1) In vitro antifungal activity of AFPs and QoI fungicides was determined using 96-well plate assays as described ([Velivelli et al., 2020]) with slight modifications. Briefly, 2- to 3-week-old C. sojina was used to make a conidial suspension in 2× SFM at the final concentration of ∼10^5 conidia ml^−1. Simultaneously, peptide dilutions (in water) at various concentrations were made. Fungicides were dissolved in 50% acetone and 50% water to make a stock solution of 500 µM, and serial dilutions were made in water as needed. The peptide–conidia or the fungicide–conidia mixture at the ratio of 1:1 (45 µl:45 µl) was added in a 96-well plate and incubated at room temperature for 48 h, after which MICs of the peptides/fungicides were calculated based on microscopy as well as the resazurin cell viability assay ([Velivelli et al., 2020]).

[2] = system: fungicide-sensitive and -resistant isolates of C. sojina; test: In vitro antifungal activity assay (MIC stated across isolates); format: cell-based, Cercospora sojina; conditions: range over Cs320 and Cs350; 48 h
Procedure: as §1

C. sojina rRNA = test: Electrophoretic mobility shift assay (EMSA); format: binding, Cercospora sojina; conditions: ~200 ng C. sojina RNA, 10 mM Tris–HCl pH 8.0, 1 mM EDTA, 1 h, room temperature
Procedure: To determine the RNA binding ability of NCR13_PFV1, EMSA was performed as described in [Godwin et al. (2024)]. Briefly, total RNA was extracted from C. sojina Cs350 grown in SFM using the ZymoBIOMICS DNA/RNA Miniprep Kit (Zymo Research). Approximately 200 ng of the fungal RNA was mixed with different concentrations of NCR13_PFV1 in 20 μl of binding buffer (10 mM Tris–HCl, pH 8.0, 1 mM EDTA), incubated at room temperature for 1 h, and run through gel electrophoresis.

C. sojina conidia = test: ROS measurement with H2DCFDA; format: cell-based, Cercospora sojina; conditions: 1.5 μM peptide, 15 µM H2DCFDA
Procedure: The reactive oxygen species (ROS) indicator dye 2′,7′-dichlorodihydrofluorescein diacetate (H2DCFDA) was used to evaluate ROS induction in C. sojina cells. Cercospora sojina conidia (∼1×10^5 conidia ml^−1) in SFM at various concentrations of iron (FeSO4) were mixed with 15 µM H2DCFDA amd 1.5 µM NCR13_PFV1, and the fluorescence measurements were taken in a Tecan plate reader M200 PRO at excitation and emission wavelengths of 485 nm and 535 nm, respectively, every 30 min for 15 h. ROS induction in C. sojina was visualized using time-lapse confocal microscopy (×63 water immersion objective lens, HC PL Apochromat CS2). The C. sojina conidia grown for 4–5 h in SFM at various concentrations of iron were treated with 15 µM H2DCFDA and 1.5 µM DyLight550-NCR13_PFV1 followed by acquisition of z-stacks using a Leica SP8-X confocal microscope. The excitation and emission wavelengths of DyLight550-NCR13_PFV1 and H2DCFDA were 560 nm, 575–650 nm, and 485 nm, 500–540 nm, respectively.

TKPCQSDKDCKKFACRKPKVPKCINGFCKCVR (disulfide (positions not given here)) [NCR13_PFV1, chickpea nodule-specific cysteine-rich 32 amino acid peptide, disulfide cross-linking variant 1, expressed in Pichia pastoris]
MIC in SFM without iron ([1]; 0 μM FeSO4, 2 d): 0.75 µM | change of MIC with calcium supplementation ([1]; CaCl2, up to 20 μM): No change in MIC | MIC in SFM with ≥7.5 μM iron ([1]; FeSO4 up to 60 μM, 2 d): 3 µM | change of MIC with manganese supplementation ([1]; MnSO4, various concentrations): No change in MIC | MIC (μM) against C. sojina, Fungicide resistant, Cs350 ([1]; SFM, ~10^5 conidia ml−1, room temperature, 48 h, resazurin cell viability assay and microscopy): 1.5 µM | change of MIC with zinc supplementation ([1]; ZnSO4, various concentrations): No change in MIC | MIC against fungicide-sensitive and -resistant isolates of C. sojina [2]: 0.75 to 1.5 µM | concentration from which binding to rRNA was observed (C. sojina rRNA): 6 µM | ROS induction (C. sojina conidia): accumulates ROS | ROS level over time at iron >20 μM (C. sojina conidia; read every 30 min for 15 h): did not increase with time
